ChEMBL document CHEMBL6092122, “Nonenzymatic Sequestering of Formaldehyde into the Antibiotic Methylene-Bridged Dimer Phaeochromycin F by Streptomyces sp. OUCMDZ-4982 as a Possible Multipronged Chemical Defense Mechanism” (J Nat Prod, 2024)
In brackets after ≈: the same amount, converted by molar mass. Activity calls are given as the source filed them. No cut-off for these calls is given here.

Assays:
Nakaseomyces glabratus = assay: Antifungal activity against Candida glabrata ATCC 2001 incubated for 24 hrs by microdilution method; type: functional, organism-based
Escherichia coli = assay: Antibacterial activity against Escherichia coli ATCC 11175 incubated for 24 hrs by microdilution method; type: functional, organism-based
Candida albicans = assay: Antifungal activity against Candida albicans ATCC 10231 incubated for 24 hrs by microdilution method; type: functional, organism-based
Pseudomonas aeruginosa = assay: Antibacterial activity against Pseudomonas aeruginosa ATCC 10145 incubated for 24 hrs by microdilution method; type: functional, organism-based
Staphylococcus aureus [1] = assay: Antibacterial activity against Staphylococcus aureus ATCC 6538 in absence of HCHO by microdilution method; type: functional
Staphylococcus aureus [2] = assay: Antibacterial activity against methicillin-resistant Staphylococcus aureus ATCC 43300 in absence of HCHO by microdilution method; type: functional
[3] = Drug metabolism in Staphylococcus aureus ATCC 6538 assessed as 3,3-methylenebis(4-hydroxy-6-methyl-2H-pyran-2-one) formation in presence of 2266E medium by HPLC analysis; type: ADME
Streptomyces sp. [4] = assay: Protection against formaldehyde-induced toxicity in Streptomyces sp. OUCMDZ-4982 cultured in Gauze medium assessed as inhibition of bacterial growth incubated for 1 hr; type: functional, organism-based
Streptomyces sp. [5] = assay: Protection against formaldehyde-induced toxicity in Streptomyces sp. OUCMDZ-4982 cultured in Gauze medium assessed as decrease in bacterial growth incubated for 1 hr; type: functional, organism-based
Streptomyces sp. [6] = assay: Protection against formaldehyde-induced toxicity in Streptomyces sp. OUCMDZ-4982 cultured in A1 medium assessed as decrease in bacterial growth incubated for 1 hr; type: functional, organism-based
[7] = Drug metabolism in Staphylococcus aureus ATCC 6538 assessed as phaeochromycinF formation incubated for 1 hr by LC-MS analysis; type: ADME
Staphylococcus aureus [8] = assay: Antibiotic activity against Staphylococcus aureus ATCC 6538 assessed as compound dimer phaeochromycinF mediated reduction in bacterial growth in LB medium measured upto 8 days; type: functional, organism-based; details: time <= 8.0 day
Streptomyces sp. [9] = assay: Protection against formaldehyde-induced toxicity in Streptomyces sp. OUCMDZ-4982 cultured in Gauze medium; type: functional, organism-based
Bacillus subtilis [10] = assay: Antibiotic activity against Bacillus subtilis ATCC 6051 assessed as compound dimer phaeochromycinF mediated reduction in bacterial growth in LB medium measured upto 8 days; type: functional, organism-based; details: time <= 8.0 day
[11] = Drug metabolism in Bacillus subtilis ATCC 6051 assessed as phaeochromycinF formation incubated for 1 hr by LC-MS analysis; type: ADME
Staphylococcus aureus [12] = assay: Antibacterial activity against methicillin-resistant Staphylococcus aureus ATCC 43300 incubated for 24 hrs by microdilution method; type: functional
Staphylococcus aureus [13] = assay: Antibacterial activity against Staphylococcus aureus ATCC 43300 incubated for 24 hrs by microdilution method; type: functional
Staphylococcus aureus [14] = assay: microbe, parasite or virus in culture; details: ATCC 43300
Description: Antibacterial activity against methicillin-resistant Staphylococcus aureus ATCC 43300 in presence of 4 mg/L HCHO by microdilution method

Bacillus subtilis [15] = assay: Antibacterial activity against Bacillus subtilis ATCC 6051 incubated for 24 hrs by microdilution method; type: functional
[16] = Chemical reactivity of compound in acetaldehyde assessed as (1S,2R,18R,19R,22S,25R,28R,40S)-48-[(2S,3R,4S,5S,6R)-3-[(2S,4S,5S,6S)-4-amino-5-hydroxy-4,6-dimethyl-tetrahydropyran-2-yl]oxy-4,5-dihydroxy-6-(hydroxymethyl)tetrahydropyran-2-yl]oxy-22-(2-amino-2-oxo-ethyl)-5,15-dichloro-2,18,32,35,37-pentahydroxy-19-[(2R,4R)-4-isobutyl-2,3-dimethyl-5-oxo-imidazolidin-1-yl]-20,23,26,42,44-pentaoxo-7,13-di …; type: physicochemical
Staphylococcus aureus [17] = assay: microbe, parasite or virus in culture; details: ATCC 43300; remark: listed apart in the source
Description: Antibacterial activity against methicillin-resistant Staphylococcus aureus ATCC 43300 in presence of 8 mg/L HCHO by microdilution method

Staphylococcus aureus [18] = assay: microbe, parasite or virus in culture; details: ATCC 6538
Description: Antibacterial activity against Staphylococcus aureus ATCC 6538 in presence of 4 mg/L HCHO by microdilution method

[19] = Drug metabolism in Staphylococcus aureus ATCC 6538 assessed as (1S,2R,18R,19R,22S,25R,28R,40S)-48-[(2S,3R,4S,5S,6R)-3-[(2S,4S,5S,6S)-4-amino-5-hydroxy-4,6-dimethyl-tetrahydropyran-2-yl]oxy-4,5-dihydroxy-6-(hydroxymethyl)tetrahydropyran-2-yl]oxy-22-(2-amino-2-oxo-ethyl)-5,15-dichloro-2,18,32,35,37-pentahydroxy-19-[(4R)-4-isobutyl-3-methyl-5-oxo-imidazolidin-1-yl]-20,23,26,42,44-pentaoxo-7,13-dioxa- …; type: ADME
Staphylococcus aureus [20] = assay: microbe, parasite or virus in culture; details: ATCC 6538; remark: listed apart in the source
Description: Antibacterial activity against Staphylococcus aureus ATCC 6538 in presence of 8 mg/L HCHO by microdilution method

[21] = Chemical reactivity of compound in formaldehyde assessed as (1S,2R,18R,19R,22S,25R,28R,40S)-48-[(2S,3R,4S,5S,6R)-3-[(2S,4S,5S,6S)-4-amino-5-hydroxy-4,6-dimethyl-tetrahydropyran-2-yl]oxy-4,5-dihydroxy-6-(hydroxymethyl)tetrahydropyran-2-yl]oxy-22-(2-amino-2-oxo-ethyl)-5,15-dichloro-2,18,32,35,37-pentahydroxy-19-[(4R)-4-isobutyl-3-methyl-5-oxo-imidazolidin-1-yl]-20,23,26,42,44-pentaoxo-7,13-dioxa-21, …; type: physicochemical
[22] = Chemical reactivity of compound in formaldehyde assessed as (4R,4aR,5aS,12aR)-9-(3-(tert-butyl)-5-oxoimidazolidin-1-yl)-4,7-bis(dimethylamino)-3,10,12,12a-tetrahydroxy-1,11-dioxo-1,4,4a,5,5a,6,11,12a-octahydrotetracene-2-carboxamide formation; type: physicochemical
Bacillus subtilis [23] = assay: Bactericidal activity against Bacillus subtilis ATCC 6051 incubated for 24 hrs by microdilution method; type: functional
Staphylococcus aureus [24] = assay: Bactericidal activity against Staphylococcus aureus ATCC 6538 incubated for 24 hrs by microdilution method; type: functional
Staphylococcus aureus [25] = assay: Bactericidal activity against Staphylococcus aureus ATCC 43300 incubated for 24 hrs by microdilution method; type: functional

Structure (SMILES) | Activity (Nakaseomyces glabratus) | Activity (Escherichia coli) | Activity (Candida albicans) | Activity (Pseudomonas aeruginosa) | other results
Cc1cc(=O)c2c(Cc3cc(O)c(Cc4c(O)cc(CC5(O)CC(=O)c6c(C)cc(O)cc6O5)oc4=O)c(=O)o3)cccc2o1 (stereo not given) | inactive | inactive | inactive | inactive | 
CC(C)C[C@@H]1C(=O)N([C@H]2C(=O)N[C@@H](CC(N)=O)C(=O)N[C@H]3C(=O)N[C@H]4C(=O)N[C@H](C(=O)N[C@H](C(=O)O)c5cc(O)cc(O)c5-c5cc4ccc5O)[C@H](O)c4ccc(c(Cl)c4)Oc4cc3cc(c4O[C@@H]3O[C@H](CO)[C@@H](O)[C@H](O)[C@H]3O[C@H]3C[C@](C)(N)[C@H](O)[C@H](C)O3)Oc3ccc(cc3Cl)[C@H]2O)CN1C |  |  |  |  | MIC (Staphylococcus aureus [1]): 64 µg/mL (≈ 43.8 µM); MIC (Staphylococcus aureus [2]): 64 µg/mL (≈ 43.8 µM)
Cc1cc(O)cc(=O)o1 [4-HYDROXY-6-METHYLPYRAN-2-ONE] |  |  |  |  | Drug metabolism [3]: metabolite_detected; Activity (Streptomyces sp. [4]): Active; Activity (Streptomyces sp. [5]): inactive; Activity (Streptomyces sp. [6]): Active
Cc1cc(=O)c2c(Cc3cc(O)cc(=O)o3)cccc2o1 | inactive | inactive | inactive | inactive | Drug metabolism [7]: metabolite_detected; Activity (Staphylococcus aureus [8]): Active; Activity (Streptomyces sp. [9]): Active; Activity (Bacillus subtilis [10]): inactive; Drug metabolism [11]: metabolite_detected
CCOC(=O)CC=C(c1c(O)cc(C)oc1=O)c1c(O)cc(C)oc1=O | inactive | inactive | inactive | inactive | 
CN(C)c1cc(N2CN(C(C)(C)C)CC2=O)c(O)c2c1C[C@H]1C[C@H]3[C@H](N(C)C)C(O)=C(C(N)=O)C(=O)[C@@]3(O)C(O)=C1C2=O (single isomer, unassigned) |  |  |  |  | MIC (Staphylococcus aureus [12]): 32 µg/mL (≈ 53.5 µM); MIC (Staphylococcus aureus [13]): 1 µg/mL (≈ 1.67 µM)
Cc1cc(=O)c2c(Cc3cc(O)c(C(C)c4c(O)cc(Cc5cccc6oc(C)cc(=O)c56)oc4=O)c(=O)o3)cccc2o1 | inactive | inactive | inactive | inactive | 
CC(=O)c1c(O)cccc1Cc1cc(O)c(Cc2c(O)cc(Cc3cccc4oc(C)cc(=O)c34)oc2=O)c(=O)o1 | inactive | inactive | inactive | inactive | 
CC(C)C[C@@H]1C(=O)N([C@H]2C(=O)N[C@@H](CC(N)=O)C(=O)N[C@H]3C(=O)N[C@H]4C(=O)N[C@H](C(=O)N[C@H](C(=O)O)c5cc(O)cc(O)c5-c5cc4ccc5O)[C@H](O)c4ccc(c(Cl)c4)Oc4cc3cc(c4O[C@@H]3O[C@H](CO)[C@@H](O)[C@H](O)[C@H]3O[C@H]3C[C@](C)(N)[C@H](O)[C@H](C)O3)Oc3ccc(cc3Cl)[C@H]2O)[C@H](C)N1C |  |  |  |  | MIC (Staphylococcus aureus [1]): 64 µg/mL (≈ 43.4 µM); MIC (Staphylococcus aureus [2]): 32 µg/mL (≈ 21.7 µM)
Cc1cc(=O)c2c(Cc3cc(O)c(C(c4ccccc4)c4c(O)cc(Cc5cccc6oc(C)cc(=O)c56)oc4=O)c(=O)o3)cccc2o1 | inactive | inactive | inactive | inactive | 
Cc1cc(=O)c2c(Cc3cc(O)c(Cc4c(O)cc(Cc5cccc(O)c5)oc4=O)c(=O)o3)cccc2o1 | inactive | inactive | inactive | inactive | 
CN[C@H](CC(C)C)C(=O)N[C@H]1C(=O)N[C@@H](CC(N)=O)C(=O)N[C@H]2C(=O)N[C@H]3C(=O)N[C@H](C(=O)N[C@H](C(=O)O)c4cc(O)cc(O)c4-c4cc3ccc4O)[C@H](O)c3ccc(c(Cl)c3)Oc3cc2cc(c3O[C@@H]2O[C@H](CO)[C@@H](O)[C@H](O)[C@H]2O[C@H]2C[C@](C)(N)[C@H](O)[C@H](C)O2)Oc2ccc(cc2Cl)[C@H]1O [VANCOMYCIN] |  |  |  |  | MIC (Staphylococcus aureus [14]): 8 µg/mL (≈ 5.52 µM); MIC (Bacillus subtilis [15]): 0.5 µg/mL (≈ 0.345 µM); Activity [16]: Active; MIC (Staphylococcus aureus [17]): 16 µg/mL (≈ 11 µM); MIC (Staphylococcus aureus [18]): 8 µg/mL (≈ 5.52 µM); Drug metabolism [19]: metabolite_detected; MIC (Staphylococcus aureus [20]): 16 µg/mL (≈ 11 µM); Activity [21]: Active; Activity [22]: Active; MBC (Bacillus subtilis [23]): 0.5 µg/mL (≈ 0.345 µM); MBC (Staphylococcus aureus [24]): 4 µg/mL (≈ 2.76 µM); MBC (Staphylococcus aureus [25]): 4 µg/mL (≈ 2.76 µM)
